Assay results: ChEMBL document CHEMBL6092219, “Structure-Based Design of Covalent SARS-CoV-2 Papain-like Protease Inhibitors” (J Med Chem, 2024)
Activity calls are given as the source filed them. The calls are words filed in the database; no cut-off is given here.

Tests used:
[1] = (§1) Cytotoxicity against African green monkey Vero E6 cells incubated for 48 hrs by Neutral Red method; type: toxicity, cell-based, Vero C1008; conditions: chlorocebus sabaeus, Vero E6 cells
[2] = molecular target: T1, Replicase polyprotein 1ab (Severe acute respiratory syndrome coronavirus 2, UniProt P0DTD1); test: Inhibition of SARS-CoV-2 PL protease preincubated for 30 mins followed by substrate addition measured after 3 hrs
Vero C1008 = test: as §1; type: toxicity, cell-based; conditions: chlorocebus sabaeus, vero c1008, 48 h
[3] = molecular target: T1, Replicase polyprotein 1ab; test: Inhibition of SARS-CoV-2 PL protease using ISG15-AMC as substrate preincubated for 30 mins followed by substrate addition measured for 1 hr
[4] = molecular target: Ubiquitin carboxyl-terminal hydrolase 14 (Homo sapiens) (UniProt P54578); test: Inhibition of N-terminal 6His-tagged recombinant human USP14 (91 to 494 residues) expressed in Escherichia coli using Ub-AMC as substrate upto 100 uM
[5] = molecular target: T1, Replicase polyprotein 1ab; test: Inhibition of SARS-CoV-2 PL protease using Ub-AMC as substrate preincubated for 30 mins followed by substrate addition measured for 1 hr
[6] = molecular target: Ubiquitin carboxyl-terminal hydrolase 7 (Homo sapiens) (UniProt Q93009); test: Inhibition of N-terminal polyhis/GST-tagged full-length human USP7 (1 to 1102 residues) expressed in baculovirus infected insect cells using Ub-AMC as substrate upto 100 uM; conditions: Insect cell
SARS-CoV-2 [7] = test: microbe, parasite or virus in culture; type: functional, organism-based, Vero E6; conditions: Severe acute respiratory syndrome coronavirus 2, Vero C1008, 24 h
[8] = Metabolic stability in mouse liver microsomes assessed as half life at 1 uM incubated for 60 mins by LC/MS/MS analysis; type: ADME, Microsome; conditions: for half-life at 1 µM: liver microsomes
[9] = Cmax in C57BL/6J mouse at 50 mg/kg, po measured 5 hrs by LC/MS/MS analysis; type: ADME, organism-based; conditions: in vivo
[10] = AUClast in C57BL/6J mouse at 50 mg/kg, ip measured 5 hrs by LC/MS/MS analysis; type: ADME, organism-based; conditions: in vivo
[11] = Cmax in C57BL/6J mouse at 50 mg/kg, ip measured 0.5 hrs by LC/MS/MS analysis; type: ADME, organism-based; conditions: in vivo
SARS-CoV-2 [12] = test: microbe, parasite or virus in culture; type: functional, organism-based; conditions: Severe acute respiratory syndrome coronavirus 2, Caco-2, 24 h
SARS-CoV-2 [13] = test: Antiviral activity against wild-type SARS-CoV-2 WA1 infected in human Caco-2 cells expressing hTMPRSS/hACE2 incubated for 48 hrs in presence of CP-100356 by crystal violet staining based analysis; type: functional, organism-based; conditions: Severe acute respiratory syndrome coronavirus 2, WA1, Caco-2, 48 h
SARS-CoV-2 [14] = test: Selectivity ratio of EC50 for SARS-CoV-2 XBB1.16 infected in human Caco-2 cells expressing hTMPRSS/hACE2 to EC50 for wild-type SARS-CoV-2 WA1 infected in human Caco-2 cells expressing hTMPRSS/hACE2; type: functional
SARS-CoV-2 [15] = test: Antiviral activity against SARS-CoV-2 XBB1.16 infected in human Caco-2 cells expressing hTMPRSS/hACE2 incubated for 48 hrs in presence of CP-100356 by crystal violet staining based analysis; type: functional, organism-based; conditions: Severe acute respiratory syndrome coronavirus 2, XBB1.16, Caco-2, 48 h
SARS-CoV-2 [16] = test: Antiviral activity against SARS-CoV-2 JN.1 infected in human Caco-2 cells expressing hTMPRSS/hACE2 incubated for 48 hrs in presence of CP-100356 by crystal violet staining based analysis; type: functional, organism-based; conditions: Severe acute respiratory syndrome coronavirus 2, JN.1, Caco-2, 48 h
SARS-CoV-2 [17] = test: Selectivity ratio of EC50 for SARS-CoV-2 JN.1 infected in human Caco-2 cells expressing hTMPRSS/hACE2 to EC50 for wild-type SARS-CoV-2 WA1 infected in human Caco-2 cells expressing hTMPRSS/hACE2; type: functional

Ubiquitin carboxyl-terminal hydrolase 7 (Homo sapiens), sequence (Q93009 whole entry, looked up, the tested form may be a part): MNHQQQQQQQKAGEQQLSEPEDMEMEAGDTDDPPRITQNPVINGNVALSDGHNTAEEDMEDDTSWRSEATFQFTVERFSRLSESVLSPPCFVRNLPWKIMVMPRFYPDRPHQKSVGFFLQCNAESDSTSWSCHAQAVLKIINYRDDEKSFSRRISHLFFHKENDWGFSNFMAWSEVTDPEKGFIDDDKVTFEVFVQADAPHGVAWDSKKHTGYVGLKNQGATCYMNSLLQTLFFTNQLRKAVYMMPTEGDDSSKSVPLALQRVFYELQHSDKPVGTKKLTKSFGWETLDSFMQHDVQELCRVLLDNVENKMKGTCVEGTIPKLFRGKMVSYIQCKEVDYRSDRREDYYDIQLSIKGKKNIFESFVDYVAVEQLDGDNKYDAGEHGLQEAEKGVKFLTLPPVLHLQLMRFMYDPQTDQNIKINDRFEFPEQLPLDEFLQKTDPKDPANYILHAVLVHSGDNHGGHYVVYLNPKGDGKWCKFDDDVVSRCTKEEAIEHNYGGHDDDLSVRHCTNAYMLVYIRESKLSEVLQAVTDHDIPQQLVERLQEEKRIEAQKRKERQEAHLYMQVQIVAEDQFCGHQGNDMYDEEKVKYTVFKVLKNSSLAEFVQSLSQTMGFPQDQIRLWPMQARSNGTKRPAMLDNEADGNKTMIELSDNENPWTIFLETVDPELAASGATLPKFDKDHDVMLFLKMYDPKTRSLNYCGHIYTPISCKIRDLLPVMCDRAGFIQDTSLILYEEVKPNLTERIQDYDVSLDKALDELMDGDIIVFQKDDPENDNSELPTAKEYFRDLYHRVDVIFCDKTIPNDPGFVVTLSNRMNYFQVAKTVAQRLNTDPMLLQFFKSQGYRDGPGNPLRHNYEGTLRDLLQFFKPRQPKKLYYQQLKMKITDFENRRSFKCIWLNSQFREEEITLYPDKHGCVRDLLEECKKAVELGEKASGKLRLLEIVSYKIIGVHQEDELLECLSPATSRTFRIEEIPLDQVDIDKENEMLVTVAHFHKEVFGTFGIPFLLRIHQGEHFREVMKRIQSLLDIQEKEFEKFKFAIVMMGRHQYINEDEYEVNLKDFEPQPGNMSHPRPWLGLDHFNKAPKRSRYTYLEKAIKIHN
Ubiquitin carboxyl-terminal hydrolase 14 (Homo sapiens), sequence (P54578 whole entry, the tested form may be a part): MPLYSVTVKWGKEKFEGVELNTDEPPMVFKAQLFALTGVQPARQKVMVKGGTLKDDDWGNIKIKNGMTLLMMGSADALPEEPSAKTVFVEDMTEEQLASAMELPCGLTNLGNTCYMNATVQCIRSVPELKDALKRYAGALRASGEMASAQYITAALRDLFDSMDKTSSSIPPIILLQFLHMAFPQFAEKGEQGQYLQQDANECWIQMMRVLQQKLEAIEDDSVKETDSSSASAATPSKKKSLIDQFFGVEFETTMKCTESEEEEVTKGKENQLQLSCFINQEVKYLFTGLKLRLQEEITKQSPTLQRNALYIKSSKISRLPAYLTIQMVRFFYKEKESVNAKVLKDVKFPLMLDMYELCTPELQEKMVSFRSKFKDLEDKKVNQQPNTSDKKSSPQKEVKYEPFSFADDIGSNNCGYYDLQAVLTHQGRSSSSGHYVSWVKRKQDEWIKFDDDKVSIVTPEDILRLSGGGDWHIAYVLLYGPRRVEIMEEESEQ

| SMILES | CC50 at 48 h [1] [nM] | IC50 [2] [nM] | further results |
| --- | --- | --- | --- |
| CCn1ccc(-c2cc(-c3cnn(C)c3)cc([C@@H](C)NC(=O)c3ccccc3CCC(=O)NCCC#N)c2)n1 | 146000 | > 10000 | – |
| C=CS(=O)(=O)NNC(=O)CCc1ccccc1C(=O)N[C@H](C)c1cc(-c2cnn(C)c2)cc(-c2ccn(CC)n2)c1 | – | 300 | CC50 (Vero C1008): 31000 nM |
| CCn1ccc(-c2cc(-c3cnn(C)c3)cc([C@@H](C)NC(=O)c3ccccc3CCC(=O)NNC(=O)/C=C/C(=O)N3CC(F)(F)C3)c2)n1 | – | 100 | Ki [3]: 1.36 nM; inhibition [4]: inactive; Ki [5]: 0.25 nM; inhibition [6]: inactive; EC50 (SARS-CoV-2 [7]): 185 nM |
| CCn1ccc(-c2cc(-c3cnn(C)c3)cc(C3(NC(=O)c4ccccc4CNC(=O)CNC(=O)/C=C/C(=O)N4CC(F)(F)C4)CC3)c2)n1 | > 250000 | 1600 | – |
| CCn1ccc(-c2cc(-c3cnn(C)c3)cc([C@@H](C)NC(=O)c3ccccc3CCC(=O)NNC(=O)/C=C/C(=O)NC3CC3)c2)n1 | > 250000 | 200 | half-life at 1 µM [8]: > 2.42 h; EC50 (SARS-CoV-2 [7]): 5200 nM |
| CCn1ccc(-c2cc(-c3cnn(C)c3)cc([C@@H](C)NC(=O)c3ccccc3CCC(=O)NNC(=O)/C=C/C(=O)N3CC(C)(C)C3)c2)n1 | > 250000 | – | Cmax [9]: < 10 ng/mL; half-life at 1 µM [8]: 1.4 h; AUClast [10]: 2513 ng·h/mL; Cmax [11]: 995 ng/mL |
| C#CCNC(=O)CCc1ccccc1C(=O)N[C@H](C)c1cc(-c2cnn(C)c2)cc(-c2ccn(CC)n2)c1 | 256000 | 5000 | – |
| CCn1ccc(-c2cc(-c3cnn(C)c3)cc([C@@H](C)NC(=O)c3ccccc3CCC(=O)NNC(=O)/C=C/C(=O)OC(C)(C)C)c2)n1 | – | 100 | EC50 (SARS-CoV-2 [7]): 99.2 nM |
| CCn1ccc(-c2cc(-c3cnn(C)c3)cc([C@@H](C)NC(=O)c3ccccc3CNC(=O)CNC(=O)/C=C/C(=O)N3CC(F)(F)C3)c2)n1 | > 250000 | 500 | – |
| CCn1ccc(-c2cc(-c3cnn(C)c3)cc([C@@H](C)NC(=O)c3ccccc3CCC(=O)NNC(=O)/C=C/C(=O)N3CC(C(F)(F)F)C3)c2)n1 | – | 100 | – |
| CCn1ccc(-c2cc(-c3cnn(C)c3)cc([C@@H](C)NC(=O)c3ccccc3CCC(=O)NNC(=O)/C=C/C(=O)N3CCC3)c2)n1 | > 250000 | 100 | Cmax [9]: < 10 ng/mL; t1/2 ([8]; microsomes, 1 h, 1 µM): > 2.42 h; EC50 (SARS-CoV-2 [7]): 3200 nM |
| CCn1ccc(-c2cc(-c3cnn(C)c3)cc([C@@H](C)NC(=O)c3ccccc3CCC(=O)NNC(=O)C(Cl)Cl)c2)n1 | > 250000 | 2200 | – |
| CCn1ccc(-c2cc(-c3cnn(C)c3)cc([C@@H](C)NC(=O)c3ccccc3CCC(=O)NNC(=O)/C=C/C(=O)NC3CC(F)(F)C3)c2)n1 | > 250000 | 200 | half-life at 1 µM [8]: 1.31 h; EC50 (SARS-CoV-2 [7]): 2400 nM |
| CCn1ccc(-c2cc(-c3cnn(C)c3)cc([C@@H](C)NC(=O)c3cc(OCCN(C)C)ccc3C)c2)n1 | – | – | EC50 (SARS-CoV-2 [12]): 420 nM |
| CCn1ccc(-c2cc(-c3cnn(C)c3)cc([C@@H](C)NC(=O)c3ccccc3CCC(=O)NNC(=O)C34CC(C3)C4)c2)n1 | > 250000 | – | – |
| CCn1ccc(-c2cc(-c3cnn(C)c3)cc([C@@H](C)NC(=O)c3ccccc3CCC(=O)NNC(C)=O)c2)n1 | > 250000 | – | – |
| CC(C)(C)[C@H](NC(=O)C(F)(F)F)C(=O)N1C[C@H]2[C@@H]([C@H]1C(=O)N[C@H](C#N)C[C@@H]1CCNC1=O)C2(C)C | – | – | EC50 (SARS-CoV-2 [13]): 33.9 nM; Ratio EC50 (SARS-CoV-2 [14]): 1.1; EC50 (SARS-CoV-2 [15]): 37.1 nM; EC50 (SARS-CoV-2 [16]): 96 nM; Ratio EC50 (SARS-CoV-2 [17]): 2.8 |
| CCn1ccc(-c2cc(-c3cnn(C)c3)cc([C@@H](C)NC(=O)c3ccccc3CCC(=O)NNC(=O)CCl)c2)n1 | – | 300 | CC50 (Vero C1008): > 250000 nM |
| CCn1ccc(-c2cc(-c3cnn(C)c3)cc([C@@H](C)NC(=O)c3ccccc3CCC(=O)NNC(=O)/C=C/C(=O)NC34CC(C3)C4)c2)n1 | > 250000 | 100 | EC50 (SARS-CoV-2 [7]): 6130 nM |
| CCn1ccc(-c2cc(-c3cnn(C)c3)cc([C@@H](C)NC(=O)c3ccccc3CCC(=O)NNC(=O)/C=C/C(=O)N(C)C)c2)n1 | > 250000 | 700 | – |
| CCOC(=O)/C=C/C(=O)NNC(=O)CCc1ccccc1C(=O)N[C@H](C)c1cc(-c2cnn(C)c2)cc(-c2ccn(CC)n2)c1 | – | 100 | – |
| C=CC(=O)NNC(=O)CCc1ccccc1C(=O)N[C@H](C)c1cc(-c2cnn(C)c2)cc(-c2ccn(CC)n2)c1 | > 250000 | 3100 | – |
| CCn1ccc(-c2cc(-c3cnn(C)c3)cc([C@@H](C)NC(=O)c3ccccc3CCC(=O)NCC(=O)CF)c2)n1 | > 250000 | – | – |
| CCn1ccc(-c2cc(-c3cnn(C)c3)cc([C@@H](C)NC(=O)c3ccccc3CCC(=O)NNC(=O)/C=C/C(=O)N3CC(F)C3)c2)n1 | > 250000 | 100 | half-life at 1 µM [8]: 1.3 h; EC50 (SARS-CoV-2 [7]): 935 nM |
| CCOC(=O)/C=C/C(=O)NCC(=O)NCc1ccccc1C(=O)NC1(c2cc(-c3cnn(C)c3)cc(-c3ccn(CC)n3)c2)CC1 | > 250000 | 1100 | – |
| CCn1ccc(-c2cc(-c3cnn(C)c3)cc([C@@H](C)NC(=O)c3ccccc3CCC(=O)NNC(=O)/C=C/CN(C)C)c2)n1 | > 250000 | > 5000 | – |
